Experimental data as given in patent US20100249050A1, “[…] AND USE THEREOF” (SHANDONG UNIVERSITY, priority 2008, published 2010).

Legend:
Conditions in all cases: for Inhibition rate of growth: 48-72 hrs
[1] = tested on: human liver cancer cell HepG2; experiment: Antitumor activity test (MTT reduction / SRB protein staining), growth inhibition of HepG2; format: cell-based
From the text: (§1) Screening method: methyl-thiazol-tettazolium (MTT) reduction method and sulforhodamine B (SRB) protein staining method.
(§2) Cell strains: human liver cancer cell HepG2, human lung cancer cell A-549, and breast cancer cell MDA-MB-435.

[2] = tested on: human lung cancer cell A-549; experiment: Antitumor activity test (MTT reduction / SRB protein staining), growth inhibition of A-549; format: cell-based
From the text: as §1, §2

[3] = tested on: breast cancer cell MDA-MB-435; experiment: Antitumor activity test (MTT reduction / SRB protein staining), growth inhibition of MDA-MB-435; format: cell-based, human
From the text: as §1, §2

CC(=Cc1csc(C)n1)C1CC2OC2CCCC(C)C(O)C(C)C(=O)C(C)(C)C(OC2OC(CO)C(O)C2O)CC(=O)O1 (centres unmarked) [epothilone glycoside A-1]
IC50 ([1]; HepG2, 48-72 hrs): 70 nM
Inhibition grade (no / weak / strong effect) ([1]; HepG2, at the concentration of 10^−6 M): strong inhibition
Inhibition rate of growth ([1]; HepG2, concentration 10^−4 M): 100
Inhibition rate of growth ([1]; HepG2, concentration 10^−5 M): 99.9
Inhibition rate of growth ([1]; HepG2, concentration 10^−6 M): 93.3
Inhibition rate of growth ([1]; HepG2, concentration 10^−7 M): 41.5
Inhibition rate of growth ([1]; HepG2, concentration 10^−8 M): 15.7
Inhibition grade (no / weak / strong effect) ([2]; A-549, at the concentration of 10^−6 M): weak inhibition
Inhibition rate of growth ([2]; A-549, concentration 10^−4 M): 90.6
Inhibition rate of growth ([2]; A-549, concentration 10^−5 M): 83.7
Inhibition rate of growth ([2]; A-549, concentration 10^−6 M): 72.0
Inhibition rate of growth ([2]; A-549, concentration 10^−7 M): 0
Inhibition rate of growth ([2]; A-549, concentration 10^−8 M): 0
IC50 ([3]; MDA-MB-435, 48-72 hrs): 2070 nM
Inhibition grade (no / weak / strong effect) ([3]; MDA-MB-435, at the concentration of 10^−6 M): weak inhibition
Inhibition rate of growth ([3]; MDA-MB-435, concentration 1 μM): 18.9
Inhibition rate of growth ([3]; MDA-MB-435, concentration 2 μM): 55.0
Inhibition rate of growth ([3]; MDA-MB-435, concentration 4 μM): 76.1
Inhibition rate of growth ([3]; MDA-MB-435, concentration 8 μM): 84.6
Inhibition rate of growth ([3]; MDA-MB-435, concentration 10 μM): 98.2
